Measured values as given in US20120010178A1, “METHODS AND COMPOUNDS FOR TREATMENT OF NEURODEGENERATIVE DISORDERS” (PRESIDENT AND FELLOWS OF HARVARD COLLEGE, priority 2008, published 2012).
“Also recorded” adds a separate entry of the source.

What was measured:
[1] = tested on: ES-cell derived Motor Neurons with SMN knockdown; experiment: Motor neuron survival assay after SMN knockdown (shRNA lentivirus); type: cell-based, mouse; details: for surviving motor neurons compared to DMSO: 1.25 and 2.5 uM
From the text: To test for survival, motor neurons were infected with three lentiviral constructs acquired from Open Biosystems (pGIPZ): a non-silencing (NS) shRNA and two with unique shRNA sequences directed against the Smn transcript. […] Quantification of SMN knockdown were made in 3T3 cells (FIGS. 39a-39b) and in motor neurons by sorting ES cell derived motor neurons (cherry positive) infected with the pGIPZ lentiviruses (GFP positive cells) by FACS and quantifying the amount of SMN by Western blot.
Effect of reduced SMN levels on motor neuron survival was investigated next. Motor neurons were plated and infected with the various lentiviral constructs. […] To test the effects of SMN increasing compounds, we added them to motor neurons two days after lentiviral infection. Over the course of the subsequent three days, we counted live cherry expressing motor neurons on a daily basis.
Mouse ES-cells expressing cherry fluorescent protein (CFP) under control of a Hb9 promoter, a motor neuron specific transcription factor, were used to differentiate motor neurons as described in Example 31. Motor neurons were infected with the three constructs that were acquired from Open Biosystems (pGIPZ): a non-silencing (NS) shRNA and two constructs with unique shRNA sequences directed against the Smn transcript. […] First we performed motor neuron survival assays to test whether reduced levels of SMN will affect viability of these motor neurons. We differentiated mES cells with Hb9-Chemy Fluorescent Protein (Hb9-CFP) in to motor neurons expressing CFP, that later we dissociated and plated on DIV0. Cells were infected with the NS pGIPZ virus, SMN#1 pGIPZ virus, SMN#2 pGIPZ virus or no virus on DIV 1. The percentage of surviving motor neuron was normalized to the uninfected control culture. […] The percentage of surviving motor neuron was normalized to the culture infected with control non-targeting shRNA.

SMN [2] = experiment: SMN levels in human motor neurons derived from patient iPS cells; type: cell-based; details: two days after treatment
Method: GFP expressing motor neurons were derived from an […] patient iPS cells as described below. After growing for approximately 1 week, motor neurons were treated with allsterpaullone. Two days after treatment with allsterpaullone, cells were fixed and stained with SMN antibody or GFP antibody. […] Induced pluripotent stem cells were generated from an SMA patient fibroblast line from Coriell (GM09677) and differentiated into motor neurons according to methods adapted from Dimos, J. T., et. al. Science (2008) 321, 1218-122, Epub Jul. 31, 2008).

PC12 cells = details: cited from earlier work
SMN [3] = experiment: High-content fibroblast screen for compounds that modulate SMN level; details: human fibroblasts, 2-3 days with compound;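 further: Anti-SMN immunostaining with confocal imaging of nuclear and cytoplasmic SMN and gem counts, tested at 0.1, 1 and 10 uM, fold change relative to negative control wells on each plate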
[4] = tested on: kinase phosphorylation sites (Akt, RSK1, p38, GSKa/b, Erk1/2); experiment: Phospho-kinase antibody array of PDGF treated fibroblasts; type: cell-based, human; details: 50 ng/ml, 30 min
Method: Although there is much more known about growth factor specificity and downstream pathways that they activate, whether PDGF effect on SMN was mediated through the binding to the PDGFR was tested next. The SMN-increasing effects of PDGF were blocked by DMPQ and […], two small molecules inhibitors of the PDGF receptor (FIG. 21a). In addition PDGF neutralizing antibody titration were performed in the cells incubated with 20 ng/ml platelet-derived PDGF. Depending on the antibody concentration, gradient of SMN level decrease reaching 40% was observed (FIG. 21b). Moreover, as might be predicted, since there are appreciable levels of PDGF in the media serum in which the fibroblasts are normally maintained, simply adding PDGFR inhibitors DMPQ and AG-1296 to the media decreases the “basal” level of SMN in these cells down to 15-20%, (FIG. 22). Same effect was reproduced by adding PDGF neutralizing antibody to the media, confirming that PDGF can be a physiologically relevant regulator of SMN levels (FIG. 21c). […]
Cellular lysates from fibroblasts GM09677 treated with 50 ng/ml of PDGF-BB for 30 minutes and untreated control fibroblasts were collected and hybridized with the phosphor-kinase array membranes accordingly to the manufacture protocol (R&D Systems). […] Levels of phosphorylated protein were detected by measurement on the X-ray film (Kodak).

motor neurons = experiment: Motor neuron survival (mouse motor neurons, compound treatment); type: cell-based
Method: Mouse motor neurons were treated with […] inhibitors. The levels of both cytoplasmic and nuclear SMN were detected and quantified using the method described in Example 2. The results shown in FIG. 14b indicate that […] inhibitors increase motor neuron survival.
Another way of assessing motor neuron survival is by withdrawing the neurotrophic factors from the media. Briefly, motor neurons are grown in media containing neurotrophic factors. The neurotrophic factors are then withdrawn from the growth media, e.g., cells transferred to media having no neurotrophic factors or neurotrophic factor containing media exchanged with neurotrophic factors lacking media. The compound of interest is added and motor neurons are counted on a daily basis.

effect on Erk1 and 2 kinase phosphorylation [4] | Compound | survival of motor neurons after SMN knockdown (in words) ([1]; 1.25, 2.5 or 5 uM) | surviving motor neurons compared to DMSO ([1]; by the second day) | surviving motor neurons compared to DMSO ([1]; by the third day) | SMN levels in human iPS derived motor neurons (in words) (SMN [2]) | protection from EGTA induced death (PC12 cells) | SMN level in fibroblast screen (increase or decrease) (SMN [3]) | kinases phosphorylated upon stimulation [4] | motor neuron survival (in words) (motor neurons)
 | O=C1Cc2c([nH]c3ccc([N+](=O)[O-])cc23)-c2ccccc2N1 [Alsterpaullone] | able to rescue the survival; also recorded: rescues the survival of SMN-KD Motor Neurons up to control level | twice the amount of surviving cells | three fold difference | Increased SMN levels | able to protect PC12 cells from EGTA induced death | SMN is increase |  | 
little effect | PDGF |  |  |  |  |  |  | phosphorylation of Akt, RSK1, p38 and GSKa/b | no effect
